Experimental findings from patent EP0171342A1, “Substituted 2-(1-amino-akylidenyl)1,3-indane diones, process for their preparation and their therapeutical use” (priority 1984, dated 1986) are described below.

A short description of series [1]: Acute toxicity (mortality, LD50) in mice. In kind it is in vivo. As to conditions: in vivo, mouse, read-out: mortalité.
Series [2] relates to souris. Briefly: Acute toxicity (mortality, LD50) in mice. Format: in vivo. As to conditions: mouse.
Series [3] has as its system rat soumis à une surcharge hydrique. The series can be described thus: Diuretic activity in rats given a water overload, oral. Format: in vivo. As to conditions: rat, water overload, oral; for response vs control in vivo at 20 mg/kg: read-out: facteur multipliant l'excrétion urinaire du sodium. On the procedure: L'activité diurétique a été déterminée sur plusieurs modèles expérimentaux. Chez le rat soumis à une surcharge hydrique, administrés par voie orale à la dose de 20 mg/kg, le COR3760, le COR3789, le COR3792, le COR4002, le COR4003, le COR4009, le COR4010, le COR4012 et le COR4014 multiplient l'excrétion urinaire du sodium par respectivement un facteur 2,9 - 3,1 - 5,9 - 2,6 - 7,2 - 3,5 - 3,8 - 2,9 - 2,4. Administrés à la dose de 10 mg/kg, dans les mêmes conditions, les COR3760, COR3789, COR3792, COR4003 et COR4010 multiplient l'excrétion sodique par respectivement 2,3 - 2,9 - 2,8 - 2,4 et 2,5. La spironolactone multiplie quant à elle l'excrétion sodique d'un facteur 3,6 à la dose de 20 mg/kg. Administré à la dose de 5 mg/kg dans les mêmes conditions, le COR3792 multiplie l'excrétion sodique par 3,3. Administré par voie orale chez le rat ou la souris soumis à une surcharge saline, le COR3760 augmente l'excrétion urinaire volumétrique mesurée à la sixième heure de respectivement 49, 119 et 134% chez la souris et 28, 84 et 116% chez le rat après administration de 10, 20, et 40 mg/kg. Le COR3760 a été administré par voie orale au rat soumis à une surcharge hydrique et l'excrétion urinaire volumétrique, le sodium et le potassium excrétés ont été mesurés sur une période de 6 heures; ces paramètres ont varié de respectivement +17%, +102%, +165% à 10 mg/kg, +19%, +147%, +180% à 20 mg/kg et +36%, +415% et +239% à 40 mg/kg; le rapport Na/K passe de 0,56 chez les animaux témoins à 0,4 à 10 mg/kg, 0,49 à 20 mg/kg et 0, 8 à 40 mg/ kg. Au cours d'une seconde expérimentation, le COR3760 a entrainé des variations de +19%, +157%, +70% à 40 mg/kg, +19%, +319%, +90% à 60 mg/kg et +29%, +472% et +77% à 80 mg/kg; le rapport Na/K passe de 0,59 chez les animaux témoins à 0,88 à 40, 1,15 à 60 et 1,88 à 80 mg/kg.

Series [4] has as its system oedème induit par l'injection intraplantaire de carragénine chez le rat. The series can be described thus: Anti-inflammatory activity: carrageenan paw oedema in rats. Format: in vivo. As to conditions: oral 1 h before carrageenan, measured 3 h after. The procedure:
L'activité antiinflammatoire a été déterminée chez le rat par la mesure de l'inhibition de l'oedème induit par l'injection intraplantaire de 0,1 ml d'une suspension à 1% de carragénine chez le rat. Les produits à tester sont administrés par voie orale lh avant l'injection de carragénine et la mesure est réalisée 3h après cette injection. Les COR3789, COR3792, COR4003, COR4008 et COR4010 administrés à 10b mg/kg entrainent respectivement 43, 42, 41, 38 et 39% d'inhibition. Administré à 200 mg/kg, le COR3773 entraine 53% d'inhibition. L'aspirine administrée dans les mêmes conditions à 150 mg/kg entraine 40% d'inhibition de l'oedème.

In series [5] the test system is poumon de cobaye isolé perfusé. Briefly: Bronchodilator activity: isolated perfused guinea pig lung contracted by methacholine. As to conditions: flow of Tyrode solution, lung contracted by 0,05 microg/ml methacholine; read-out: concentration qui augmente ce débit de 50%. From the text:
L'activité bronchodilatatrice a été déterminée in vitro par la mesure du débit d'une solution de Tyrode à travers un poumon de cobaye isolé perfusé, contracté par l'addition au fluide de perfusion de 0,05 microg/ml de méthacholine. Les COR3760, COR3789, COR3792, COR4003, COR4008, COR4010 et COR4014 utilisés respectivement aux concentrations de 50, 50, 100, 10, 50, 50 et 10 microg/ml augmentent ce débit de 50%. L'aminophylline entraine cette même activité à la concentration de 100 microg/ml.

The test system of series [6] is segments d'iléon de cobaye isolés. The series can be described thus: Anticholinergic activity: acetylcholine-induced contractions of isolated guinea pig ileum. As to conditions: Cavia porcellus; contractions induced by 0,1 microg/ml acetylcholine; read-out: concentration qui inhibe ces contractions de 80%. From the text:
L'activité anticholinergique a été appréciée par la mesure des contractions induites par 0,1 microg/ml d'acétylcholine sur des segments d'iléon de cobaye isolés. Les COR3760, COR3789, COR3792, COR4003, COR4008, COR4010, COR4014 utilisés respectivement aux concentrations de 50, 25, 25, 50, 25, 10, 25 microg/ml inhibent ces contractions de 80%.

In series [7] the test system is oreillette gauche de cobaye. The series can be described thus: Calcium antagonist activity: electrically stimulated guinea pig left atrium. As to conditions: 150 beats/min, low-calcium (0,6 mM) Tyrode solution; read-out: concentration qui inhibe de 50% l'augmentation de la force de contraction induite par l'addition de 0,6 mM de calcium. On the procedure: L'activité anticalcique a été déterminée in vitro sur deux modèles expérimentaux.
Sur oreillette gauche de cobaye stimulée électriquement à 150 battements/mn dans une solution de Tyrode pauvre en calcium (0,6 mM), les COR3789, COR3792, COR4009, COR4010 et COR4011 employés respectivement à 25, 100, 50, 10 et 25 microg/ml inhibent de 50% l'augmentation de la force de contraction induite par l'addition de 0,6 mM de calcium.

The subject of another series is iléon de cobaye. The series can be described thus: Spasmolytic activity: guinea pig ileum contractions induced by transmural stimulation. The following applies: 2 microg/ml, oxygenated Krebs solution at 32°C. The procedure:
L'activité spasmolytique a été déterminée in vitro par la mesure de l'effet du produit à tester sur les contractions de l'iléon de cobaye induites par stimulation transmurale dans une solution de Krebs oxygénée à 32°C. Le COR4010 et le COR3773 utilisés à la concentration de 2 microg/ml entrainent 50% d'inhibition de ces contractions.

The test system of series [8] is rat Wistar soumis à une surcharge saline. Briefly: Diuretic activity in selected Wistar rats given a saline overload (modified Wiebelhaus test). In kind it is in vivo. The procedure:
L'activité diurétique des produits selon l'invention a été également déterminée chez le rat Wistar soumis à une surcharge saline selon une modification du test décrit par Wiebelhaus et coll., Fed. Proc., 1960, 19, 364, en procédant à une sélection des animaux. A la dose de 20 mg/kg, les COR4003, COR4008, COR4009, COR4010, COR4011, COR4012, COR4014, COR4016, COR4021, COR4025 augmentent l'excrétion urinaire volumétrique mesurée au bout de 6 heures de respectivement 56, 54, 65, 95, 73, 54, 33, 40, 99 et 92 %. L'excrétion urinaire du sodium augmente de respectivement 56, 24, 42, 59, 43, 33, 29, 43, 31, 83, 26, 99, 40 % toujours à cette dose pour les COR4003, COR4008, COR4009, COR4010, COR4011, COR4012, COR4014, COR4016, COR4017, COR4021, COR4023, COR4025 et COR4026. Le rapport Na/K demeure la plupart du temps inchangé. Testé dans les mêmes conditions le furosémide, administré à la dose de 20 mg/kg entraine 63% d'augmentation de l'excrétion urinaire volumétrique et 53% d'augmentation de l'excrétion urinaire du sodium.

Series [9] concerns souris. Briefly: Anticonvulsant activity: bicuculline-induced convulsions in mice. In kind it is in vivo. As to conditions: mouse, i.p., 100 mg/kg. On the procedure: L'activité anticonvulsivante est également déterminée dans le test des inhibitions des convulsions induites par la bicuculline. Des souris reçoivent par voie intrapéritonéale le produit à tester, puis 30 mn et 5 heures plus tard, deux injections séparées de 0,5 mg de bicuculline. […] Les résultats de ce test sont le reflet d'une activité gabaergique directe.

The mark [10] stands for this setting: 6 h, read-out: augmentation de l'excrétion urinaire volumétrique mesurée au bout de 6 heures.
Where [11] appears, read: read-out: augmentation de l'excrétion urinaire du sodium.

Structures are written as SMILES. In brackets after ≈: the same amount, converted by molar mass. Read-outs that look alike come from different tables or passages of the source.

For `CNC(C)=C1C(=O)c2ccc([N+](=O)[O-])cc2C1=O` [COR4002, Nitro-5 (méthylamino-1 éthylidényl)-2 indanedione-1,3], the mortality in [1] (ip, intraperitoneal, 200 mg/kg) was found to be 100%; in series [1] (oral, 300 mg/kg), 100%. In addition, the mortalité entry in the series on souris [2] (intraperitoneal, 100 mg/kg) was “aucune mortalité”; in the series on souris [2] (oral, 100 mg/kg), “aucune mortalité”. Moreover, the response vs control in vivo at 20 mg/kg in [3] stood at 260%.

As to `CC(NC(C)C)=C1C(=O)c2ccccc2C1=O` [COR3792, (Isopropylamino-1 éthylidène)-2 indanedione-1,3], the mortalité result is on record as “aucune mortalité” in the series with souris [2] (intraperitoneal, 200 mg/kg) and “aucune mortalité” with souris [2] (oral, 300 mg/kg). For the same molecule, the results for the “facteur multipliant l'excrétion sodique” value in series [3] (5 mg/kg) and in series [3] (10 mg/kg) were 3,3 and 2,8, respectively. Further, in series [3], the response vs control in vivo at 20 mg/kg is 590%. Besides, in series [4] (dose 10b mg/kg [sic]), the “inhibition de l'oedème” value worked out at 42%. The EC50 in [5] came out at 100 µg/mL (≈ 436 µM). Further, the IC80 in [6] was found to be 25 µg/mL (≈ 109 µM). Also, the IC50 in series [7] turned out to be 100 µg/mL (≈ 436 µM).

On to `Cn1c(=O)c2[nH]cnc2n(C)c1=O` [aminophylline, reference compound], for which the EC50 in series [5] came to 100 µg/mL (≈ 555 µM).

Consider `CNC(C)=C1C(=O)c2ccc(Cl)cc2C1=O` [COR3773, Chloro-5 (méthylamino-1 éthylidène)-2 indanedione-1,3], for which the mortalité entry in the series with souris [2] (intraperitoneal, 200 mg/kg) is given as “aucune mortalité”; in the series with souris [2] (oral, 300 mg/kg), “aucune mortalité”. Further, the inhibition at 2 µg/mL with iléon de cobaye (read-out: inhibition de ces contractions) was found to be 50%. The “inhibition de l'oedème” value in series [4] (200 mg/kg) is reported as 53%.

Consider `CC(NC(C)(C)C)=C1C(=O)c2ccccc2C1=O` [COR4001, (Tertiobutylamino-1 éthylidényl)-2 indanedione-1,3], for which the mortality in series [1] (ip, intraperitoneal, 200 mg/kg) was found to be 100%; in series [1] (oral, 300 mg/kg), 100%. In addition, the mortalité result in the series with souris [2] (intraperitoneal, 100 mg/kg) was “aucune mortalité”; in the series on souris [2] (oral, 100 mg/kg) it was “aucune mortalité”.

Take `CC(NCC(C)C)=C1C(=O)c2ccccc2C1=O` [COR4008, (Isobutylamino-1 éthylidényl)-2 indanedione-1,3]: the mortalité entry in the series on souris [2] (intraperitoneal, 200 mg/kg) is on record as “aucune mortalité”; in the series on souris [2] (oral, 300 mg/kg), “aucune mortalité”. In addition, the change in vivo at 20 mg/kg in series [8] (setting [10]) stood at 54%; in series [8] (setting [11]), 24%. In addition, the “inhibition de l'oedème” value in series [4] (dose 10b mg/kg [sic]) is on record as 38%. Further, the EC50 in series [5] was found to be 50 µg/mL (≈ 206 µM). For the same molecule, the IC80 in [6] was 25 µg/mL (≈ 103 µM).

For the molecule `CCCC(CCC)C(=O)O` [valproate de sodium, reference compound], the “inhibition des convulsions induites par la bicuculline” value is given as “inhibe les convulsions induites par la première injection” with souris [9] (first bicuculline injection (30 min later)) and “sans inhiber celles induites par la deuxième” with souris [9] (second bicuculline injection (5 hours later)).

Consider `CC(NC1CC1)=C1C(=O)c2ccccc2C1=O` [COR4014, (Cyclopropylamino-1 éthylidényl)-2 indanedione-1,3], for which the mortalité entry is given as “aucune mortalité” in the series on souris [2] (intraperitoneal, 200 mg/kg) and “aucune mortalité” with souris [2] (oral, 300 mg/kg). Besides, in [3], the response vs control in vivo at 20 mg/kg stood at 240%. Besides, the change in vivo at 20 mg/kg came to 33% in [8] (setting [10]) and 29% in series [8] (setting [11]). In series [5], the EC50 is 10 µg/mL (≈ 44 µM). For the same molecule, in series [6], the IC80 was determined as 25 µg/mL (≈ 110 µM).

For the molecule `CC(=C1C(=O)c2ccccc2C1=O)N(C)C` [COR3788, (Diméthylamino-1 éthylidène)-2 indanedione-1,3], the mortality was 100% in series [1] (ip, intraperitoneal, 200 mg/kg) and 100% in [1] (oral, 300 mg/kg). The mortalité entry in the series on souris [2] (intraperitoneal, 100 mg/kg) was “aucune mortalité”.

Take `CC(=O)Oc1ccccc1C(=O)O` [aspirine, reference compound]: in series [4] (150 mg/kg), the “inhibition de l'oedème” value is 40%.

In the case of `COc1ccc(Cc2nccc3cc(OC)c(OC)cc23)cc1OC` [papavérine, reference compound], in the series on iléon de cobaye, the “inhibition de ces contractions” value is “la même activité”.
